Source: PMC3062577, “Purification and biochemical properties of a cytochrome bc complex from the aerobic hyperthermophilic archaeon Aeropyrum pernix” (BMC Microbiology, 2011)

Tests used:
cytochrome oa3 oxidase = biological target: T1, cytochrome oa3 oxidase (Aeropyrum pernix, UniProt Q9YDX6+Q9YDX7); assay: spectrophotometric TMPD oxidation at […] nm; format: biochemical; details: 25 mM TMPD, 0.1 M NaCl, 50 mM NaPi pH 6.5, 40 °C; without added cytochrome c553
T1 construct: gene aoxB; native, partially purified from A. pernix K1 membranes in DDM; 140 kDa on BN-PAGE; bands 74, 40 and 25 kDa (25 kDa = cytochrome c553); assigned to AoxA/AoxB by size only; aoxABC = APE_0792.1, APE_0793.1, APE_0795.1

[1] = biological target: T2, cytochrome c553 complex (cytochrome bc complex) (Aeropyrum pernix, UniProt Q9YB72+Q9YB73+Q9YB78); assay: spectrophotometric menaquinol oxidation / yeast cytochrome c reduction; format: biochemical; details: acceptor yeast cytochrome c; pH 7.0, 40 °C, 0.2 mM menaquinol-1 (menaquinol oxidase assay); 0.1% DDM
T2 construct: gene soxC; native complex purified from A. pernix K1 membranes in DDM; 80 kDa on BN-PAGE; subunits 40, 30 and 25 kDa; only the 25-kDa subunit identified by mass (21,344)
T2 sequence (Q9YB72 1-571): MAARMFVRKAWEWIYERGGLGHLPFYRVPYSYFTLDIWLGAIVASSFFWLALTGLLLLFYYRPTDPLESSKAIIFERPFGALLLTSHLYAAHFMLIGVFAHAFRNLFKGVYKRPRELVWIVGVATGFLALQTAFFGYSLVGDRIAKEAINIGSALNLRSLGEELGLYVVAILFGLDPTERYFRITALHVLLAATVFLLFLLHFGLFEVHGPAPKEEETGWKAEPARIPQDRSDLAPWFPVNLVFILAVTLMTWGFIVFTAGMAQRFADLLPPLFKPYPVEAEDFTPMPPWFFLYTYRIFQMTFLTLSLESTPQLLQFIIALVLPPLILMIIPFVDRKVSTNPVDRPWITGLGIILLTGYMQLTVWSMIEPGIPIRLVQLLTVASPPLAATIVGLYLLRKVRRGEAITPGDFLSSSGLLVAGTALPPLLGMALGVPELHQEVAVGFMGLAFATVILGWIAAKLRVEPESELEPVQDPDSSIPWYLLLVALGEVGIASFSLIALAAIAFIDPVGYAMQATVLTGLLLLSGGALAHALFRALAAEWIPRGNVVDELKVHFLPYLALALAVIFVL
T2 sequence (Q9YB73 34-265): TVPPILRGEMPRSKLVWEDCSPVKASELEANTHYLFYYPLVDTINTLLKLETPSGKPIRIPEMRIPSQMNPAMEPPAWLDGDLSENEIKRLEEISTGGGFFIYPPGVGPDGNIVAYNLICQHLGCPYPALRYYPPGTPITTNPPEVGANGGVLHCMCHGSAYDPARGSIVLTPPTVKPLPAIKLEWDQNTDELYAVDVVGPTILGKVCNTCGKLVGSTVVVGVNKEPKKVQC
T2 sequence (Q9YB78 1-190): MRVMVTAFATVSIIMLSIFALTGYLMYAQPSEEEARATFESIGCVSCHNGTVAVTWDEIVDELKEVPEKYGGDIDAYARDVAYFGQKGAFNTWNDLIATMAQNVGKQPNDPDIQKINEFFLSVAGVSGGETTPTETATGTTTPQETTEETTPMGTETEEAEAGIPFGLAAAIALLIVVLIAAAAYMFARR

T1 sequence (Q9YDX6 whole entry): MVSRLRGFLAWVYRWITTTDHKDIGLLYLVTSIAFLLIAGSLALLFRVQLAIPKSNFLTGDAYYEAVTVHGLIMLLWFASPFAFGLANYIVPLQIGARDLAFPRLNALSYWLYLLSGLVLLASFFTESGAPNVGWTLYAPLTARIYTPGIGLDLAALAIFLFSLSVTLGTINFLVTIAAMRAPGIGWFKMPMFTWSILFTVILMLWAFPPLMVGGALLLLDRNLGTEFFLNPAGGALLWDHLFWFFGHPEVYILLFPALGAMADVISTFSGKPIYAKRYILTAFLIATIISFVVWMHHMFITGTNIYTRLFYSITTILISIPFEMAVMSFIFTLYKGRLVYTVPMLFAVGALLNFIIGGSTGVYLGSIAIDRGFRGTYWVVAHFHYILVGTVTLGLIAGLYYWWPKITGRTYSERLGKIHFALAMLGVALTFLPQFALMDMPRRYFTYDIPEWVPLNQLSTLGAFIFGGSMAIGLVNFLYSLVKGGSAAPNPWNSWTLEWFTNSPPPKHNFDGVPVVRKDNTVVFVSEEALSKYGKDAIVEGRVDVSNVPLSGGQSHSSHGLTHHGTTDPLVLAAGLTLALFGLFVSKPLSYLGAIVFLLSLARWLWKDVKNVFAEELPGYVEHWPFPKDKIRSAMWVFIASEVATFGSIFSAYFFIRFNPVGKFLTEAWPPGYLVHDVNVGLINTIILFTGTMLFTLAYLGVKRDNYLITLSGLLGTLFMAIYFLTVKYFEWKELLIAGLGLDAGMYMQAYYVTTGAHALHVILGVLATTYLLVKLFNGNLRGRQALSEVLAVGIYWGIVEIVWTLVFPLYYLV
T1 sequence (Q9YDX7 whole entry): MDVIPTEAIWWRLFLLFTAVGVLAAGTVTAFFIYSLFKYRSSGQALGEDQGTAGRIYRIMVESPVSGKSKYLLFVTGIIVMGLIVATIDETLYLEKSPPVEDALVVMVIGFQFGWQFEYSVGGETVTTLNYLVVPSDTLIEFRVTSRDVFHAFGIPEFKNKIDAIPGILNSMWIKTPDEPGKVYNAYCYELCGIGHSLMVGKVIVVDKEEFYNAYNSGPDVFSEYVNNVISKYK
T1 sequence (Q9YDX4 whole entry partner): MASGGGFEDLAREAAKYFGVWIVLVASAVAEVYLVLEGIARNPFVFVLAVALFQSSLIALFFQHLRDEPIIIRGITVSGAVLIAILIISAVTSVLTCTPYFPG

| SMILES | spectrophotometric TMPD oxidation at 562 nm (cytochrome oa3 oxidase) | spectrophotometric menaquinol oxidation / yeast cytochrome c reduction [1] |
| --- | --- | --- |
| CN(C)c1ccc(N(C)C)cc1 [TMPD, N,N,N',N'-tetramethyl-p-phenylenediamine] | The isolated cytochrome oa3 oxidase had TMPD and yeast cytochrome c oxidation activity |  |
| CC(C)=CCc1c(C)c(O)c2ccccc2c1O [menaquinol-1] |  | cytochrome c553 oxidized menaquinol and reduced yeast cytochrome c |
